One data set has as its target T1, OAT3 (Homo sapiens, UniProt Q8TCC7).
T1 construct: expressed in transfected cells; host or cells: MDCK-II
T1 sequence (Q8TCC7 1-542): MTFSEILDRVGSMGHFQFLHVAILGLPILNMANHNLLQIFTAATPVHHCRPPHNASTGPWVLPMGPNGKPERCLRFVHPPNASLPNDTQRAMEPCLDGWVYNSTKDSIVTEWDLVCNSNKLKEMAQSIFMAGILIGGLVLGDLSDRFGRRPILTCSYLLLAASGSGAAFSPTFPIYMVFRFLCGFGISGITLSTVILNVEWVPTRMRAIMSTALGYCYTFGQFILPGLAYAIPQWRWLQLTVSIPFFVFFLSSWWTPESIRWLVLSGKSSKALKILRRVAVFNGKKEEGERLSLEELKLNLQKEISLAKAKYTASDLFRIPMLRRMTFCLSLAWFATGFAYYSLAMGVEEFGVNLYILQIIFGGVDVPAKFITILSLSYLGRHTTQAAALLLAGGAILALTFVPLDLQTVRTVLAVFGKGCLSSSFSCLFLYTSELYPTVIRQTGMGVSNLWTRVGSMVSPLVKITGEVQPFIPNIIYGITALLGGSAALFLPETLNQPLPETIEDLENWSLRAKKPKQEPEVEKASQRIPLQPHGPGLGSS
Kind of data set: Further OAT3 uptake inhibition assay (Table 2). It counts as cell-based. The note with it: human, MDCK-II cells expressing human OAT3, probe 10 μM PAH (p-aminohippurate); compound 1 μM; PAH 10 μM; mean and SD of triplicate. As for the experimental part:
(§1) In a further assay, the effects of several other compounds (including compounds 2, 3, and 4) were assessed against OAT3. The assay was carried out using a similar procedure as described above, using para-aminohippurate (PAH) and estrone-3-sulfate (E3S) as the substrates for measuring OAT3-mediated transport. […] MDCK-II cells were grown in 96-well cell culture plates, and the cell plates are maintained at 37° C. in 5% CO2 atmosphere prior to initiation of the transport experiment. MDCK-II cells were maintained in DMEM with low glucose and 10% FBS. Cells passages up to 40 are seeded at 60K±10K cells/well on 96-well, transwell membrane plates approximately 24 hours before transfection. Transport assays were carried out approximately 48 hours after transfection. Radio-labeled para-aminohippurate ([3H]-PAH) and estrone-3-sulfate (E3S) were used as substrates for measuring OAT3-mediated transport, where the transport of the substrate was determined by radiometric detection. Probenecid was used as a reference inhibitor. Transport study samples were run in triplicate.
(§2) For uptake assays, the net transporter-mediated uptake rate (V) of the substrate by each SLC transporter was calculated as follows:
(§3) Transporter-mediated uptake rate(pmol/min/cm^2)=((Cellular accumulation in cells expressing the transporter)−(Mean cellular accumulation in control cells))/Incubation time.
(§4) Percent inhibition was calculated by dividing the transporter-mediated uptake rate in presence of the test article or the reference inhibitor by the transporter-mediated uptake rate in presence of vehicle control:
(§5) Percent inhibition=100−(100×(transporter-mediated uptake rate)with inhibitor/(transporter-mediated uptake rate)vehicle control)
(§6) For uptake assays, statistical analyses using an unpaired t test was performed between transporter-mediated uptake rate or ATP-dependent transport rate of probe substrate with vehicle control and the inhibitor. A p value of <0.05 was considered statistically significant.
(§7) Table 2 summarizes the inhibitory activity of these compounds against OAT3 in the uptake of probe substrate PAH (p-aminohippurate) or E3S (estrone-3-sulfate). The percent inhibition values were determined by testing compounds at a single concentration of 1 μM with a PAH concentration of 10 μM. Data represent the mean and standard deviation of triplicate samples. The IC50 values were calculated by means of a concentration response curve with a compound concentration range of 0.03-10 μM and a probe substrate concentration of 10 μM PAH or 0.1 μM E3S. The percent inhibition at the various concentrations was run in triplicate and the IC50 value was determined by non-linear regression using GraphPad Prism.

In a further data set the target is T2, human transporter OAT3 (Homo sapiens, UniProt Q8TCC7).
T2 construct: expressed in transfected cells; host or cells: MDCK-II
T2 sequence (Q8TCC7 1-542): T1 sequence (Q8TCC7 1-542)
The data set is described as follows: Further OAT3 uptake inhibition assay (Table 2). It counts as cell-based. The note with it: compound 0.03-10 μM. How it is done:
as §1, §2, §3, §4, §5, §6, §7

Setting [1] is: 0.1 μM E3S, read-out: OAT3 inhibition substrate = E3S (IC50).
Where [2] appears, read: 10 μM PAH, read-out: OAT3 inhibition substrate = PAH (IC50).

Like-named read-outs stand apart in the source and are kept apart here. Some results are limits rather than exact numbers.

In general, inhibition refers to the change of the read-out against control, counted positive when it falls. Broadly, the IC50 is the concentration at which inhibition is half-maximal.

On to `O=S(=O)(c1ccc(-n2cn[nH]c2=S)c(N2CCOCC2)c1)c1ccc(Cl)c(C(F)(F)F)c1` [Compound 2, 4-(4-((4-chloro-3-(trifluoromethyl)phenyl)sulfonyl)-2-morpholinophenyl)-2,4-dihydro-3H-1,2,4-triazole-3-thione], for which, on OAT3, the inhibition at 1 μM came to 48%. The results for the 50% inhibitory concentration (IC50) on human transporter OAT3 (setting [1]) and at human transporter OAT3 (setting [2]) were 1.9 µM and 1.36 µM, respectively. `O=S(=O)(c1ccccc1)c1ccc(-n2cn[nH]c2=S)cc1` [Compound 3, 4-(4-(phenylsulfonyl)phenyl)-2,4-dihydro-3H-1,2,4-triazole-3-thione]: the inhibition at 1 μM at OAT3 is 33.1%. The same measure, in the same setting: the same measure for `O=S(=O)(c1ccc(Cl)cc1)c1ccc(-n2cn[nH]c2=S)cc1` [Compound 4, 4-(4-((4-chlorophenyl)sulfonyl)phenyl)-2,4-dihydro-3H-1,2,4-triazole-3-thione]: 76.3%. In the case of `Cc1cc(S(=O)(=O)c2ccc(-n3cn[nH]c3=S)cc2)ccc1Cl` [Compound 5, 4-(4-((4-chloro-3-methylphenyl)sulfonyl)phenyl)-2,4-dihydro-3H-1,2,4-triazole-3-thione], the inhibition at 1 μM on OAT3 turned out to be 86.5%. Same read-out and setting: the same measure for `O=S(=O)(c1ccc(-n2cn[nH]c2=S)cc1)c1cccc(C(F)(F)F)c1` [Compound 11, 4-(4-((3-(trifluoromethyl)phenyl)sulfonyl)phenyl)-2,4-dihydro-3H-1,2,4-triazole-3-thione]: 58.6%; for `COc1cccc(S(=O)(=O)c2ccc(-n3cn[nH]c3=S)cc2)c1` [Compound 12, 4-(4-((3-methoxyphenyl)sulfonyl)phenyl)-2,4-dihydro-3H-1,2,4-triazole-3-thione]: 48.4%.

For `CN(C)c1cccc(S(=O)(=O)c2ccc(-n3cn[nH]c3=S)cc2)c1` [Compound 15, 4-(4-((3-(dimethylamino)phenyl)sulfonyl)phenyl)-2,4-dihydro-3H-1,2,4-triazole-3-thione], the inhibition at 1 μM against OAT3 was 60.1%. The same measure, in the same setting: then `O=S(=O)(c1ccc(-n2cn[nH]c2=S)c(N2CCCCC2)c1)c1ccc(Cl)c(C(F)(F)F)c1` [Compound 19, 4-(4-((4-chloro-3-(trifluoromethyl)phenyl)sulfonyl)-2-(piperidin-1-yl)phenyl)-2,4-dihydro-3H-1,2,4-triazole-3-thione], with 43%; and `CN1CCN(c2cc(S(=O)(=O)c3ccc(Cl)c(C(F)(F)F)c3)ccc2-n2cn[nH]c2=S)CC1` [Compound 20, 4-(4-((4-chloro-3-(trifluoromethyl)phenyl)sulfonyl)-2-(4-methylpiperazin-1-yl)phenyl)-2,4-dihydro-3H-1,2,4-triazole-3-thione], with 17.2%; and `CCN(CC)c1cc(S(=O)(=O)c2ccc(Cl)c(C(F)(F)F)c2)ccc1-n1cn[nH]c1=S` [Compound 21, 4-(4-((4-chloro-3-(trifluoromethyl)phenyl)sulfonyl)-2-(diethylamino)phenyl)-2,4-dihydro-3H-1,2,4-triazole-3-thione], with 48.2%.

Consider `CCOCCOc1cc(S(=O)(=O)c2ccc(Cl)c(C(F)(F)F)c2)ccc1-n1cn[nH]c1=S` [Compound 22, 4-(4-((4-chloro-3-(trifluoromethyl)phenyl)sulfonyl)-2-(2-ethoxyethoxy)phenyl)-2,4-dihydro-3H-1,2,4-triazole-3-thione], for which the inhibition at 1 μM against OAT3 turned out to be 79.5%. Consider `CSc1nncn1-c1ccc(S(=O)(=O)c2ccc(Cl)c(C(F)(F)F)c2)cc1` [Compound 26, 4-(4-((4-chloro-3-(trifluoromethyl)phenyl)sulfonyl)phenyl)-3-(methylthio)-4H-1,2,4-triazole], for which the inhibition at 1 μM against OAT3 came out at 9.78%. The half-inhibitory concentration (IC50) on human transporter OAT3 (setting [1]) amounted to 8.63 µM; on human transporter OAT3 (setting [2]), 7.67 µM.

`FC(F)(F)c1cc(Oc2ccc(-n3cn[nH]c3=S)cc2)ccc1Cl` [Compound 30, 4-(4-(4-chloro-3-(trifluoromethyl)phenoxy)phenyl)-2,4-dihydro-3H-1,2,4-triazole-3-thione]: the inhibition at 1 μM on OAT3 came to 86.3%.

For the compound `O=S(=O)(c1ccc(-n2cc[nH]c2=S)cc1)c1ccc(Cl)c(C(F)(F)F)c1` [Compound 31, 1-(4-(4-chloro-3-(trifluoromethyl)phenylsulfonyl)phenyl)-1H-imidazole-2(3H)-thione], at OAT3, the inhibition at 1 μM is -1.05%. With `O=c1[nH]ccn1-c1ccc(S(=O)(=O)c2ccc(Cl)c(C(F)(F)F)c2)cc1` [Compound 32, 1-(4-((4-chloro-3-(trifluoromethyl)phenyl)sulfonyl)phenyl)-1,3-dihydro-2H-imidazol-2-one], the inhibition at 1 μM at OAT3 is -9.18%. With `O=S(=O)(Nc1ccc(Cl)c(C(F)(F)F)c1)c1ccc(-n2cn[nH]c2=S)cc1` [Compound 33, N-(4-chloro-3-(trifluoromethyl)phenyl)-4-(5-thioxo-1H-1,2,4-triazol-4(5H)-yl)benzenesulfonamide], the inhibition at 1 μM on OAT3 stood at 94.1%. For `CS(=O)(=O)N1CCN(Cc2nnc(Nc3ccc(S(=O)(=O)c4ccc(Cl)cc4)cc3)s2)CC1` [Compound X1], the IC50 at human transporter OAT3 (setting [1]) and on human transporter OAT3 (setting [2]) was > 30 µM in each case.

As to `Nc1ncc(-c2cc(N3CCOCC3)cc(S(=O)(=O)c3ccccc3)c2)cn1` [Compound X2], the concentration for half-maximal inhibition (IC50) on human transporter OAT3 (setting [1]) and at human transporter OAT3 (setting [2]) was > 30 µM in each case.

(Values after patent US20210290597A1, “METHOD OF TREATING A CONDITION ASSOCIATED WITH NEURODEGENERATION USING INHIBITORS OF OAT3” (Neuropore Therapies, Inc., priority 2018, published 2021).)
